According to ChEMBL document CHEMBL3885881, “DrugMatrix”:

Species: Rattus norvegicus
Assay: DrugMatrix - Regimen: Daily Repeat
Type: toxicity, organism-based, Sprague-Dawley
Parameters: regimen Daily Repeat, gender Male, age 6-8 weeks
Settings: in vivo, po, route oral GAVAGE, vehicle 100 % WATER; for ABSOLUTE BASOPHIL / ABSOLUTE EOSINOPHIL / ABSOLUTE LYMPHOCYTE / ABSOLUTE MONOCYTE / ABSOLUTE SEGMENTED NEUTROPHIL / BASOPHIL / EOSINOPHIL / ERYTHROCYTE COUNT / HEMATOCRIT / HEMOGLOBIN / LEUKOCYTE COUNT / LYMPHOCYTE / MEAN CORPUSCULAR HEMOGLOBIN / MEAN CORPUSCULAR HEMOGLOBIN CONCENTRATION / MEAN CORPUSCULAR VOLUME / MONOCYTE / NEUTROPHIL / NUCLEATED RED BLOOD CELLS / PLATELET COUNT: tissue Blood; for ALANINE AMINOTRANSFERASE / ALBUMIN / ALKALINE PHOSPHATASE / ASPARTATE AMINOTRANSFERASE / BLOOD UREA NITROGEN / CARBON DIOXIDE / CHLORIDE / CHOLESTEROL / CREATINE PHOSPHOKINASE / CREATININE / GLUCOSE / LACTATE DEHYDROGENASE / LIPASE / PHOSPHORUS / POTASSIUM / SODIUM / TOTAL BILIRUBIN / TOTAL PROTEIN / URIC ACID: tissue Plasma
[1] = 46 mg/kg, 72 h, dose level High, time 3 day
[2] = 46 mg/kg, 120 h, dose level High, time 5 day
[3] = […], 72 h, dose 4.6 mg/Kg, dose level Low, time 3 day
[4] = […], 120 h, dose 4.6 mg/Kg, dose level Low, time 5 day

## CC(C)NNC(=O)c1ccncc1 [IPRONIAZID]
[1]
  ABSOLUTE BASOPHIL: 0 CELLS/uL
  ABSOLUTE EOSINOPHIL: 0 CELLS/uL
  ABSOLUTE LYMPHOCYTE: 9249.33 CELLS/uL
  ABSOLUTE MONOCYTE: 21.67 CELLS/uL
  ABSOLUTE SEGMENTED NEUTROPHIL: 762.33 CELLS/uL
  BASOPHIL: 0%
  EOSINOPHIL: 0%
  ERYTHROCYTE COUNT: 5.56 x10E6/uL
  HEMATOCRIT: 34.37%
  HEMOGLOBIN: 13.47 G/DL
  LEUKOCYTE COUNT: 10.03 x10E3/uL
  LYMPHOCYTE: 91.33%
  MEAN CORPUSCULAR HEMOGLOBIN: 24.27 pg
  MEAN CORPUSCULAR HEMOGLOBIN CONCENTRATION: 39.17 G/DL
  MEAN CORPUSCULAR VOLUME: 61.87 fL
  MONOCYTE: 0.33%
  NEUTROPHIL: 8.33%
  NUCLEATED RED BLOOD CELLS: 0 /100WBC
  PLATELET COUNT: 1304.67 x10E3/uL
  ALANINE AMINOTRANSFERASE: 37 u/L
  ALBUMIN: 4.23 G/DL
  ALKALINE PHOSPHATASE: 308 u/L
  ASPARTATE AMINOTRANSFERASE: 89 u/L
  BLOOD UREA NITROGEN: 17 mg/dL
  CARBON DIOXIDE: 29 mmol/L
  CHLORIDE: 103 MEQ/L
  CHOLESTEROL: 80.67 mg/dL
  CREATINE PHOSPHOKINASE: 622.67 u/L
  CREATININE: 0.21 mg/dL
  GLUCOSE: 160.67 mg/dL
  LACTATE DEHYDROGENASE: 288.33 u/L
  LIPASE: 11.67 u/L
  PHOSPHORUS: 12.93 mg/dL
  POTASSIUM: 6.22 MEQ/L
  SODIUM: 145.5 MEQ/L
  TOTAL BILIRUBIN: 0.17 mg/dL
  TOTAL PROTEIN: 5.97 G/DL
  URIC ACID: 1.77 mg/dL
[2]
  ABSOLUTE BASOPHIL: 0 CELLS/uL
  ABSOLUTE EOSINOPHIL: 126 CELLS/uL
  ABSOLUTE LYMPHOCYTE: 15175.33 CELLS/uL
  ABSOLUTE MONOCYTE: 93.67 CELLS/uL
  ABSOLUTE SEGMENTED NEUTROPHIL: 271.67 CELLS/uL
  BASOPHIL: 0%
  EOSINOPHIL: 0.67%
  ERYTHROCYTE COUNT: 5.63 x10E6/uL
  HEMATOCRIT: 33.73%
  HEMOGLOBIN: 13.4 G/DL
  LEUKOCYTE COUNT: 15.67 x10E3/uL
  LYMPHOCYTE: 97%
  MEAN CORPUSCULAR HEMOGLOBIN: 23.8 pg
  MEAN CORPUSCULAR HEMOGLOBIN CONCENTRATION: 39.77 G/DL
  MEAN CORPUSCULAR VOLUME: 59.8 fL
  MONOCYTE: 0.67%
  NEUTROPHIL: 1.67%
  NUCLEATED RED BLOOD CELLS: 0 /100WBC
  PLATELET COUNT: 1219.33 x10E3/uL
  ALANINE AMINOTRANSFERASE: 39 u/L
  ALBUMIN: 3.87 G/DL
  ALKALINE PHOSPHATASE: 312.33 u/L
  ASPARTATE AMINOTRANSFERASE: 118.33 u/L
  BLOOD UREA NITROGEN: 18.67 mg/dL
  CARBON DIOXIDE: 22 mmol/L
  CHLORIDE: 106.67 MEQ/L
  CHOLESTEROL: 56 mg/dL
  CREATINE PHOSPHOKINASE: 1266.33 u/L
  CREATININE: 0.24 mg/dL
  GLUCOSE: 163.67 mg/dL
  LACTATE DEHYDROGENASE: 328.67 u/L
  LIPASE: 10 u/L
  PHOSPHORUS: 11.83 mg/dL
  POTASSIUM: 5.65 MEQ/L
  SODIUM: 148.8 MEQ/L
  TOTAL BILIRUBIN: 0.23 mg/dL
  TOTAL PROTEIN: 5.53 G/DL
  URIC ACID: 1.8 mg/dL
[3]
  ABSOLUTE BASOPHIL: 0 CELLS/uL
  ABSOLUTE EOSINOPHIL: 0 CELLS/uL
  ABSOLUTE LYMPHOCYTE: 11668 CELLS/uL
  ABSOLUTE MONOCYTE: 117.67 CELLS/uL
  ABSOLUTE SEGMENTED NEUTROPHIL: 1081 CELLS/uL
  BASOPHIL: 0%
  EOSINOPHIL: 0%
  ERYTHROCYTE COUNT: 4.84 x10E6/uL
  HEMATOCRIT: 31.5%
  HEMOGLOBIN: 12.83 G/DL
  LEUKOCYTE COUNT: 12.87 x10E3/uL
  LYMPHOCYTE: 90.33%
  MEAN CORPUSCULAR HEMOGLOBIN: 26.5 pg
  MEAN CORPUSCULAR HEMOGLOBIN CONCENTRATION: 40.77 G/DL
  MEAN CORPUSCULAR VOLUME: 65 fL
  MONOCYTE: 1%
  NEUTROPHIL: 8.67%
  NUCLEATED RED BLOOD CELLS: 0 /100WBC
  PLATELET COUNT: 1111.67 x10E3/uL
  ALANINE AMINOTRANSFERASE: 56 u/L
  ALBUMIN: 4.23 G/DL
  ALKALINE PHOSPHATASE: 342.67 u/L
  ASPARTATE AMINOTRANSFERASE: 108 u/L
  BLOOD UREA NITROGEN: 13.67 mg/dL
  CARBON DIOXIDE: 26.33 mmol/L
  CHLORIDE: 105 MEQ/L
  CHOLESTEROL: 80.67 mg/dL
  CREATINE PHOSPHOKINASE: 777.33 u/L
  CREATININE: 0.24 mg/dL
  GLUCOSE: 165.67 mg/dL
  LACTATE DEHYDROGENASE: 493.33 u/L
  LIPASE: 8.33 u/L
  PHOSPHORUS: 13.3 mg/dL
  POTASSIUM: 6.06 MEQ/L
  SODIUM: 144.47 MEQ/L
  TOTAL BILIRUBIN: 0.17 mg/dL
  TOTAL PROTEIN: 5.67 G/DL
  URIC ACID: 1.5 mg/dL
[4]
  ABSOLUTE BASOPHIL: 0 CELLS/uL
  ABSOLUTE EOSINOPHIL: 175.33 CELLS/uL
  ABSOLUTE LYMPHOCYTE: 14127.33 CELLS/uL
  ABSOLUTE MONOCYTE: 0 CELLS/uL
  ABSOLUTE SEGMENTED NEUTROPHIL: 1364 CELLS/uL
  BASOPHIL: 0%
  EOSINOPHIL: 1%
  ERYTHROCYTE COUNT: 5.43 x10E6/uL
  HEMATOCRIT: 34.73%
  HEMOGLOBIN: 13.6 G/DL
  LEUKOCYTE COUNT: 15.67 x10E3/uL
  LYMPHOCYTE: 90.33%
  MEAN CORPUSCULAR HEMOGLOBIN: 25.07 pg
  MEAN CORPUSCULAR HEMOGLOBIN CONCENTRATION: 39.17 G/DL
  MEAN CORPUSCULAR VOLUME: 63.97 fL
  MONOCYTE: 0%
  NEUTROPHIL: 8.67%
  NUCLEATED RED BLOOD CELLS: 0 /100WBC
  PLATELET COUNT: 1364.67 x10E3/uL
  ALANINE AMINOTRANSFERASE: 58.33 u/L
  ALBUMIN: 4.33 G/DL
  ALKALINE PHOSPHATASE: 411.67 u/L
  ASPARTATE AMINOTRANSFERASE: 88.33 u/L
  BLOOD UREA NITROGEN: 18.33 mg/dL
  CARBON DIOXIDE: 27.33 mmol/L
  CHLORIDE: 103 MEQ/L
  CHOLESTEROL: 72 mg/dL
  CREATINE PHOSPHOKINASE: 231.67 u/L
  CREATININE: 0.23 mg/dL
  GLUCOSE: 179 mg/dL
  LACTATE DEHYDROGENASE: 197.33 u/L
  LIPASE: 11 u/L
  PHOSPHORUS: 14.8 mg/dL
  POTASSIUM: 6.06 MEQ/L
  SODIUM: 146.8 MEQ/L
  TOTAL BILIRUBIN: 0.2 mg/dL
  TOTAL PROTEIN: 6.07 G/DL
  URIC ACID: 2.07 mg/dL
